The test concerns Smpd3 expression. The test is described as follows: Smpd3 expression by RT-qPCR in B16K1 melanoma cells incubated with 5-aza or TSA. The format is cell-based, murine. The procedure:
A, B16K1 cells expressing (2+) or not (2−) V5-tagged nSMase 2 were analyzed by Western blot using anti-V5 and anti-β-actin antibodies. B, Neutral SMase activity in B16K1 nSMase 2+ (2+) and nSMase 2− (2−) as well as in mock-transfected B16K1 cells. C, Intracellular ceramide levels in B16K1 nSMase 2+(2+) and nSMase 2− (2−) as well as in mock-tranfected B16K1 cells. Data are expressed as the % of values obtained with mock-transfected B16K1 cells. Values are shown as means±sem of 3 independent experiments (B and C). D, In vitro B16K1 cell growth was evaluated in 10% FCS medium (left panel) or 0% FCS medium ([…]). […] Cells were analysed by Western blot using anti-V5 and anti-β-actin antibodies. […] Data are shown as means±sem of 3 independent experiments. (*: p<0.05; **: p<0.01). G, B16K1 melanoma cells were incubated or not with 1 μM of 5 aza-2 deoxycitidine (5-aza) during 72 hours or with 0.1 μM Trichostatine A (TSA) during the last 16 hours. Smpd3 expression was analysed by RT-qPCR. Data are shown as means±sem of 3 independent experiments.
RNA isolation and qRT-PCR. RNA isolation from cells and exosomes was performed by using the Qiagen RNeasy mini kit and Qiagen miRNeasy kit respectively, according to manufacturer's instructions. […]

As to `Nc1ncn([C@@H]2O[C@H](CO)[C@@H](O)[C@H]2O)c(=O)n1` [5-Azacytidine], the Smpd3 expression result (1 μM 5-aza during 72 hours) was “not”. On to `CC(/C=C/C(=O)NO)=C\[C@@H](C)C(=O)c1ccc(N(C)C)cc1` [trichostatin A], for which, under “0.1 μM TSA during the last 16 hours”, the Smpd3 expression result was “greatly enhanced”.

The values above are taken from patent US11078277B2, “Methods and pharmaceutical compositions for enhancing CD8+ T cell-dependent immune responses in subjects suffering from cancer” (INSERM (INSTITUT NATIONAL DE LA SANTE ET DE LA RECHERCHE …, priority 2016, dated 2021).
